For data set [1] the following is noted: Cu^2+; cited from earlier work.
For data set [2] the following is noted: Fe^3+; cited from earlier work.
For data set [3] the following is noted: Ca2^+; cited from earlier work.
Data set [4] has as its system TNF-α. The settings on record: long-term ethanol feeding; early peak at 2% d2, later peak at 5% wk 4. The text has this: (§1) All procedures using animals were approved by the Cleveland Clinic Foundation Institutional Animal Care and Use Committees. Mice were housed in shoe-box cages (2 animals/cage) with microisolator lids. Standard microisolator handling procedures were used throughout the study. Mice were randomized into ethanol-fed and pair-fed groups and then adapted to control liquid diet for 2 days. The ethanol-fed group was allowed free access to ethanol containing diet with increasing concentrations of ethanol: 1% (vol/vol) and 2% each for 2 days, then 4% ethanol for 7 d, and finally 5% ethanol for a further 4 weeks. For the dose-response experiment, mice were allowed free access to 1% ethanol for 2 days and then 2%, 4% or 6% ethanol for a further 2 days. Control mice were pair-fed diets which iso-calorically substituted maltose dextrins for ethanol over the entire feeding period. Mice were then anesthetized, blood samples taken into non-heparinized syringes from the posterior vena cava, livers blanched with saline via the portal vein and then excised. Portions of each liver were then either fixed in formalin or frozen in optimal cutting temperature (OCT) compound (Sakura Finetek U.S.A., Inc., Torrance Calif.) for histology, frozen in RNAlater (Qiagen, Valencia, Calif.) or flash frozen in liquid nitrogen and stored at −80° C. until further analysis. […]

Data set [5] deals with mouse liver. The settings on record: short-term model of ethanol exposure, 2, 4 or 6% for 2 days.
Text: as §1

The subject of data set [6] is mouse liver. The settings on record: chronic ethanol-fed vs pair-fed mice, P=0.00021.
Procedure: The tissue was homogenized manually using a Teflon-coated stainless steel pestle. After homogenization, the resulting mixture was placed in a 4° C. freezer for 30 min to maximize the lipid extraction efficiency. An aqueous solution of sodium chloride (1.5%, w/w, 1/4 the volume of the organic extract) was added. The resulting mixture was centrifuged at 3000 rpm for 15 min. The lower layer containing the lipids was carefully withdrawn with a polyethylene transfer pipette, making sure to avoid the interface or upper layer. The solvents were then evaporated under a stream of dry argon at room temperature, and the sample was stored under argon at −80° C. before being analyzed using LC-MS/MS.
The resulting mixture was sonicated for 5 min followed by the addition of PLA2 enzyme (50 μl of 10,000 units/ml). […]
Direct infusion MS and LC-MS/MS were performed on a Quattro Ultima triple-quadrupole mass spectrometer (Micromass, Wythenshawe, UK). […] The total ion current was measured in the mass-to-charge ratio (m/z) range of 50-900 at 30 V of cone energy in the negative ion mode with a 3.5-kV electrospray capillary voltage, 60-V cone voltage, 120° C. source temperature, 250° C. desolvation temperature, 65 L/h cone gas flow, and 658 L/h desolvation gas flow. […] All retention times of analytes shown in MRM spectra were recorded relative to the internal standard (iso[4]LGE2-D31-lysoPE-HL, 11.83 min). […]
The test system of data set [7] is mouse liver. Particulars: chronic ethanol-fed mouse liver (5% wk 4), ELISA and LC/MS. (In general: ELISA stands for enzyme-linked immunosorbent assay.)
Text: Mice were housed in shoe-box cages (2 animals/cage) with microisolator lids. Standard microisolator handling procedures were used throughout the study. […] Mice were then anesthetized, blood samples taken into non-heparinized syringes from the posterior vena cava, livers blanched with saline via the portal vein and then excised. Portions of each liver were then either fixed in formalin or frozen in optimal cutting temperature (OCT) compound (Sakura Finetek U.S.A., Inc., Torrance Calif.) for histology, frozen in RNAlater (Qiagen, Valencia, Calif.) or flash frozen in liquid nitrogen and stored at −80° C. until further analysis. Blood was transferred to heparin-containing tubes for the isolation of plasma. Plasma was then stored at −80° C.
Liver homogenates were prepared as described except that 50 μM butylated hydroxytoluene (BHT) and 100 μM diethylenetriamine pentaacetic acid (DTPA) were added to the buffer to prevent aerial oxidation of lipids during homogenization. 50 μg of protein was used in the ELISA.
Data set [8] deals with plasma ALT. Particulars: short-term model, 2, 4 or 6% ethanol diet for 2 days.
Text: (§2) All procedures using animals were approved by the Cleveland Clinic Foundation Institutional Animal Care and Use Committees. Mice were housed in shoe-box cages (2 animals/cage) with microisolator lids. Standard microisolator handling procedures were used throughout the study. […] Mice were then anesthetized, blood samples taken into non-heparinized syringes from the posterior vena cava, livers blanched with saline via the portal vein and then excised. Portions of each liver were then either fixed in formalin or frozen in optimal cutting temperature (OCT) compound (Sakura Finetek U.S.A., Inc., Torrance Calif.) for histology, frozen in RNAlater (Qiagen, Valencia, Calif.) or flash frozen in liquid nitrogen and stored at −80° C. until further analysis. Blood was transferred to heparin-containing tubes for the isolation of plasma. Plasma was then stored at −80° C.
Plasma samples were assayed for alanine aminotransferase (ALT) using a commercially available enzymatic assay kit (Diagnostic Chemicals, LTD, Oxford, Conn.) following the manufacturer's instructions.
For data set [9], the system named is hepatic triglycerides. Particulars: short-term model, 2, 4 or 6% ethanol diet for 2 days.
Text: as §2
Formalin-fixed tissues were paraffin embedded, sectioned and stained with hematoxylin and eosin. Sections were coded prior to analysis and examined by two independent individuals. For Oil Red O staining, 10 micron sections were cut from frozen OCT samples and affixed to a microscope slide. Slides were then stored at 4° C. until staining. […] Total liver triglycerides were measured using the Triglyceride Reagent Kit from Pointe Scientific Inc. (Lincoln Park, Mich.).
Data set [10] relates to CYP2E1. Particulars: chronic ethanol feeding, maximum at 5% wk 2.
Text: All procedures using animals were approved by the Cleveland Clinic Foundation Institutional Animal Care and Use Committees. Mice were housed in shoe-box cages (2 animals/cage) with microisolator lids. Standard microisolator handling procedures were used throughout the study. […] Mice were then anesthetized, blood samples taken into non-heparinized syringes from the posterior vena cava, livers blanched with saline via the portal vein and then excised. Portions of each liver were then either fixed in formalin or frozen in optimal cutting temperature (OCT) compound (Sakura Finetek U.S.A., Inc., Torrance Calif.) for histology, frozen in RNAlater (Qiagen, Valencia, Calif.) or flash frozen in liquid nitrogen and stored at −80° C. until further analysis. […]
0.5-1.0 g of frozen liver tissue was homogenized in 10 ml/g tissue in lysis buffer (50 mM Tris-HCl, pH7.4, 1% NP-40, 0.25% Na-deoxycholate, 150 mM NaCl, 1 mM EDTA with added protease inhibitors Complete™ (Roche Diagnostics, Mannheim, Germany), 17.5 μg/ml aprotinin, 5 μg/ml bestatin, 10 μg/ml leupeptin, 1 mg/ml bacitracin, and 20 μg/ml E64) and phosphatase inhibitors (1 mM vanadate and 10 mM Na pyrophosphate)) using 15 strokes in a glass on glass homogenizer (loose pestle). […] Protein concentrations were measured. […] Bound antibody was detected by chemiluminescence. Immunoreactive protein quantity was assessed by scanning densitometry.

Read-outs that look alike come from different tables or passages of the source.

As for `O=C(O)CN(CCN(CC(=O)O)CC(=O)O)CC(=O)O` [EDTA, ethylenediaminetetraacetic acid], the “stability constant log K of EDTA complex” value in [1] is listed as 18.8; in data set [2] it was 25.1; in [3], 10.7.

In the case of `CCO` [ethanol], in data set [4], the “TNF-α in mouse liver” value is on record as “biphasic induction”. Besides, the “4-HNE, LGE2 and iso[4]LGE2-protein adducts in liver” value in [5] is “increased only at 6% ethanol feeding”. In addition, the “isoLG-lysoPE-HL liver levels compared to pair-fed mice” value in [6] is “Twofold higher”. Moreover, in data set [7], the “adducts of iso[4]LGE2 in liver compared to pair-fed animals” value worked out at 2 fold. The “plasma ALT” value in data set [8] is “increased at 4 and 6%”. For the same compound, the hepatic triglycerides result in data set [9] was “increased at 4 and 6%”. For the same compound, the “hepatic CYP2E1 expression” value in [10] is on record as “increased over time”.
